Assay results: patent publication US12377087B2, “Compounds for the treatment of cancer” (UNIVERSITY OF LOUISVILLE RESEARCH FOUNDATION, INC., priority 2015, dated 2025)

Columns and labels:
human recombinant PFKFB4 = human recombinant PFKFB4 (Homo sapiens, UniProt Q16877); assay: fructose-6-phosphate kinase activity of human recombinant PFKFB4 (in vitro kinase assay); format: biochemical
Experimental: Kinase assays: The fructose-6-phosphate kinase activity of human recombinant PFKFB4 in the presence of DMSO±indicated 5MPN concentrations was assayed as previously described. The activity of 5MPN against 97 kinases was examined using a commercially available active-site dependent competition binding assay core service (KINOMEscanEDGE) that quantifies the capacity of lest agents to compete with an immobilized, active-site directed ligand using a DNA-tagged kinase and immobilized ligand and compound. For example, enzyme inhibition was studies using a ADP-Glo assay. […] ADP is converted into ATP, which is converted into light by a luciferase.

H460 cells [1] = assay: F2,6BP measurements in H460 cells; format: cell-based, human
Experimental: F2,6BP measurements: Cells or tissues were prepared as previously described and F2,6BP content measured using a coupled enzyme reaction following the method of Van Schaftingen et at (Van Schaftingen E et al. A kinetic study of pyrophosphate: fructose-6-phosphate phosphotransferase from potato tubers. Application to a microassay of fructose 2,6-bisphosphate. Eur J Biochem 1982 December; 129(1): 191-5) and normalized to total cellular protein measured by the bicinchoninic acid assay (BCA, Thermo Scientific). […] In order to measure F2,6BP, cells were harvested, washed with PBS, lysed in NaOH/Tris acetate by heating at 80° C. and lysates neutralized to pH 7.2. F2,6BP content was measured using a coupled enzyme reaction following the method of Van Schaftingen et al (Eur J Biochem. 1982; 129(1): 191-195). The F2,6BP concentration was normalized to total cellular protein measured by the bicinchoninic acid assay (BCA, Thermo Scientific) All data are expressed as the mean±SD of three experiments. Statistical significance was assessed by the two-sample t test (independent variable).

H460 cells [2] = assay: Glycolysis assay (3H2O from 5-[3H]glucose) in H460 cells; format: cell-based, human; conditions: H460, 10 μM 5MPN, 6-72 hours
Experimental: Cells growing in 6-well plates were incubated in 500 μl of complete medium containing 1 μCi of 5-[^3H]glucose per well for 60 min in 5% CO2 at 37° C. Media was collected, ^3H2O formed via glycolysis from the 5-[^3H]glucose measured and counts normalized as previously described. For example, the medium was then collected and centrifuged to pellet any suspended cells. To separate the ^3H2O formed via glycolysis from the 5-[^3H]glucose added to the medium, an evaporation technique in a sealed system was utilized. Briefly, 150 μl aliquots of medium were added to open tubes that were placed upright inside scintillation vials containing 1 ml of H2O. The scintillation vials were sealed, and the ^3H2O produced by glycolysis through enolase and released to the medium was allowed to equilibrate with the H2O in the outer vial for 48 h at 37° C. The amounts of ^3H2O that had diffused into the surrounding H2O was measured on a Tri-Carb 2910 liquid scintillation analyzer (Perkin Elmer) and compared with ^3H2O and 5-[^3H]glucose standards. Protein concentration was determined using the BCA assay and counts were normalized to protein concentration. All data are expressed as the mean±SD of three experiments. Statistical significance was assessed by the two-sample t test (independent variable).

H1299 = assay: viable cell count of H1299 cells; format: cell-based; conditions: H1299, 48 hours
Experimental: (§1) Cell Viability: Cells were incubated in 20% trypan blue (Sigma) for 5 minutes. Cells excluding trypan blue were counted using a standard hemocytometer (Hausser Scientific) to determine total numbers of viable cells. Data are expressed as mean±SD of three experiments.

H522 = assay: viable cell count of H522 cells; format: cell-based; conditions: H522, 48 hours
Experimental: as §1

A549 = assay: viable cell count of A549 cells; format: cell-based; conditions: A549, 48 hours
Experimental: as §1

NHBE cells = assay: viable cell count of normal human bronchial epithelial cells; format: cell-based; conditions: 48 hours
Text: (§2) Cell lines and cell culture: H460, H1299, H441, H522 and A549 non-small cell lung cancer (NSCLC), MDA-MB-231 (breast), LNCaP (prostatic) and HCT116 (colon) adenocarcinoma and Lewis lung carcinoma (LLC) cell lines were obtained from ATCC and used within 6 months of acquisition, PFKFB4^7 ear pinna Fibroblasts isolated from TamCre/loxP/PFKFB4^−/− mice were immortalized as described previously (Chesney J et al. Fructose-2,6-bisphosphate synthesis by 6-phosphofructo-2-kinase/fructose-2,6-bisphosphatase 4 (PFKFB4) is required for the glycolytic response to hypoxia and tumor growth. Oncotarget 2014 Aug. 30; 5(16):6670-86). Normal bronchial epithelial cells (NHBE) were obtained from Lonza and NHBE cells expressing telomerase, SV40 large T antigen and activated Ras (hT/LT/Ras) were a gift from Dr. B. J. Rollins, Dana Farber Cancer Institute. All cell lines were tested and found negative for mycoplasma (PCR Mycoplasma Detection Kit, ABM). […]
as §1

[3] = test system: PFKFB4−/− lung fibroblasts; assay: cell counts of tamoxifen-inducible PFKFB4-/- lung fibroblasts; format: cell-based, mice; conditions: 4HT-induced deletion, 10 μM 5MPN, 24 hours
Text: as §2, §1

Lewis lung carcinomas = assay: Lewis lung carcinoma tumor growth in mice; format: in vivo, C57BL/6 mice
LLC xenografts = assay: Ki67 immunohistochemistry of LLC xenografts; format: in vivo, C57BL/6 mice; conditions: 120 mg/kg by gavage daily, two weeks
Experimental: Immunohistochemistry: Formalin-fixed, paraffin-embedded tissue sections were processed as previously described then incubated with anti-Ki-67 primary antibody (Abeam) overnight, followed by HRP-linked goat anti-rabbit secondary antibody (1:300. Pierce). Sections were developed with 3,3′-diaminobenzidine tetrahydrochloride, counterstained, scanned and analyzed with the positive pixel count algorithm as previously described. Data are depicted as % positive pixels/total pixels±SD.

human recombinant PFKFB4, sequence (Q16877 whole entry): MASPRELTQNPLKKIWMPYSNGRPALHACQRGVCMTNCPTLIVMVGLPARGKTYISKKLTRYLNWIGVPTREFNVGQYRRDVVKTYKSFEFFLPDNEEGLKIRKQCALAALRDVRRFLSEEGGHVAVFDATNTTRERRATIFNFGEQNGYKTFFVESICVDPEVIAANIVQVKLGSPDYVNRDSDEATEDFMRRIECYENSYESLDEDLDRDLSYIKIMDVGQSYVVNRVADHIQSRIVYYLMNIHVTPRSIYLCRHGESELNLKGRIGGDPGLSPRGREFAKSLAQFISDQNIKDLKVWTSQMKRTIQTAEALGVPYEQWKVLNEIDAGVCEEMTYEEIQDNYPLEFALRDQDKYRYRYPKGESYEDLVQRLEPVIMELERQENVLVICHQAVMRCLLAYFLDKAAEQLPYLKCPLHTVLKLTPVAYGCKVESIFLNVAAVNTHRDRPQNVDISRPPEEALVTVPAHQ

Compound: COc1cccc2c(NCCCCCO[N+](=O)[O-])ccnc12 [5MPN, 5-[(8-methoxyquinolin-4-yl)amino]pentyl nitrate]
- PFKFB4 activity (kinase activity of recombinant PFKFB4) (human recombinant PFKFB4; 0, 0.1, 1 or 10 μM 5MPN, F6P 0-2000 μmol/L): significantly inhibited
- mode of inhibition, Lineweaver-Burk analyses (human recombinant PFKFB4; F6P binding site): competitive inhibitor
- intracellular concentration of F2,6BP (H460 cells [1]; H460, 10 μM 5MPN, 6-72 hours): reduced
- reduction in F2,6BP with over-expression of PFKFB4 (H460 cells [1]; H460 transfected with PFKFB4, 10 μM 5MPN, 24 hours): reversed
- glycolysis (H460 cells [2]): reduced
- growth, viable cells (H1299): dose-dependent reduction in growth
- growth, viable cells (H522): dose-dependent reduction in growth
- growth, viable cells (A549): dose-dependent reduction in growth
- cell growth, live cells (NHBE cells): virtually unaffected
- anti-proliferative effect with genomic deletion of Pfkfb4 [3]: sensitized
- body weight (Lewis lung carcinomas; LLC-bearing C57BL/6 mice, 120 mg/kg oral daily): without affecting body weight
- tumor growth of Lewis lung carcinomas (Lewis lung carcinomas; syngeneic C57BL/6 mice, 120 mg/kg daily by gavage, two weeks): suppressed the growth
- Ki67-positive cells in LLC xenografts (LLC xenografts): reduction in Ki67-positive cells
